In patent US8591908B2, “Immunogen for preparation of therapeutic vaccines or drugs for treatment of hepatitis B and the producing method and use thereof” (Institute of Immunology, PLA, priority 2002, dated 2013):
Several values for one entry are separate records, joined by “and”; a condition that tells them apart may be missing. Equal values may be shown once. Ends that are not written are not given here. * marks the point of attachment. Palmitoyl = CCCCCCCCCCCCCCCC(=O)*

How the values were obtained:
Balb/c mice = test: Neutralizing antibodies, double-antibody-sandwich and competitive inhibition test; type: in vivo
Protocol: Balb/c mice of 2-3 Months old (both male and female) were divided into 8 groups […], and were immunized with εPA44 at both postpede palmas once a week for three times at different doses: 0.001 nmol, 0.01 nmol, 0.1 nmol, 0.5 nmol, 1 nmol, 10 nmol, 20 nmol respectively, 3 weeks after the immunization, the mice were bled by removing their eyeballs and serums were collected. Antibodies were tested by the double-antibody-sandwich method. The specificity was tested by antibody competitive inhibition test using of the 10 world wide available monoclonal antibodies.

[1] = Overall functional screening of tri-epitope molecules
From the text: The designed immunogens are synthesized by chemical synthesis methods. Firstly, the most probable structures according to the computer alignment and in theory are synthesized, and then functionally screened in vitro. The screening in vitro comprises: inducing the Th1 activation of peripheral blood mononuclear cells, inducing the HBV-specific CTL, inhibiting HBsAg and HBeAg on HepG2.2.1.5 cells with polypeptide antigen-specific CTL, etc. The designed structures are optimized, improved and synthesized in the next cycle bused on the results of functional tests in vitro. The structures selected out in the in vitro tests are further screened in in vivo tests, the screening comprising: inducing the Th1 activation in Balb/C mice, inhibiting virus replication in HBV transgenic mice, conducting acute toxicity tests in mice, etc. […] Among tri-epitope molecules of different epitope combinations, εPA44 achieves the best effect (see Table 4). The in vivo and in vitro tests indicate that the convalent modification by palmitic acid gives better effects among various chemical modifications.

HBV-DNA transgenic mice = test: HBV transgenic mice: cytokines of spleen lymphocytes, ELISA (Th1/Th2); type: in vivo; conditions: 10, 100, 1000 U/mouse s.c., day 30; spleen lymphocytes restimulated with 10 ng/ml for 3 days
Protocol: The levels of cytokines such as IFN-γ, IL-4, etc. in supernatant were measured by the ELISA method, and the activity of the test drug (CH3(CH2)14COKSSQYIKANSKFIGITEAAASIVSPFIPLLGGGDPRVRGLYFPA) (SEQ ID NO:5) for inducing the differentiation of T cells into Th1/Th2 type was analyzed. […] The expression frequency of IFN-γ secreting cells in peripheral blood lymphocytes was measured by the ELI-SPOT method in said supernatant. […] On the 10th, 20th and 30th day after the end of the three immunizations, bloods were removed, serum isolated, and the contents of HBsAg and HBV-DNA in the serum were separately measured by the ELISA method and quantitative PCR method.
Then supernatants were collected and the secretion levels of cytokines such as TNF-α, IFN-γ, IL-4, etc. in supernatants were measured by ELISA, and the activity of the test drug for inducing the conversion of Th1/Th2 type from T cells in subjects was analyzed.

enzyme-labeled antibody = test: Potency/specific activity of stock solution or semifinished product, enzyme-linked plate; type: binding
From the text: Chromatography column AP5 20/275 POROS 50 R1 was used in the batch production. After peptide-resin was cleaved and preliminarily purified, the collected εPA44 sample was divided into 7 parts for high purification, and the effects and reproducibility for batch purification of εPA44 stock solution were furthered studied. […] The collected elution peak fractions of εPA44 were pooled and mixed homogenously, aliquots were removed for analysis. If the sample met the set standards, it was used as the stock solution and was stored at −20° C. until use. The output, yield and specific activity of the product were calculated based on the measured data.
The semifinished product to be tested was diluted to a concentration within the measurable range of the potency determination. An enzyme-linked plate( ? ) was coated, blocked, bound by enzyme-labeled antibody, and developed. The absorbance at 450 nm (A450 nm) was detected by an enzyme-labeling device, and compared to the reference of the product. The potency of εPA44 in the extract of the sample was determined, and the specific activity of the semifinished product ( ? ) was calculated.
The reference of the product was 10-fold diluted with 50% ethanol, and then was two-fold serially diluted. 100 μl dilutions were separately added to the wells on the 96-well enzyme-linket immunosorbent assay plate, each well was repeated in triplicate. Coating was carried out in refrigerator at 4° C. for 20-24 hours. The stock solution of εPA44 was diluted and coated similarly to the reference. 100 μl of 50% ethanol was added to negative control wells. After the coating was completed, 200 μl 1% calf serum was added to each well, and blocked in refrigerator at 4° C. for 2 hours. The enzyme-linket immunosorbent assay plate was dried in air, 80 μl enzyme-labeled antibody was added to each well and incubated at 37° C. for 40 minutes. The plate was washed with wash solution for 4 times and dried in air, then 50 μl of substrate solution A and 50 μl of substrate solution B were added to each well and developed at 37° C. for 15 minutes under protection from light. Then 50 μl of stop solution was added to each well. A450 nm values were detected on 550 type enzyme-linket immunosorbent assay detector. The median dilution times of the reference and the samples were calculated by program or linear regression method based on the median effect value of the reference of εPA44 (median maximum absorbance), and the potency of the test sample and the specific activity of the product were calculated according to the following formulas.

K(Palmitoyl)SSQYIKANSKFIGITEAAAFLPSDFFPSVGGGDPRVRGLYFPA-OH [SEQ ID NO:1, CH3(CH2)14COKSSQYIKANSKFIGITEAAAFLPSDFFPSVGGGDPRVRGLYFPA]
specificity of induced antibodies (Balb/c mice; antibody competitive inhibition test with monoclonal antibodies): HBV neutralizing antibodies
dose inducing the generation of antibody (Balb/c mice; serum 3 weeks after immunization): 0.01 nmol
effect among tri-epitope molecules of different epitope combinations [1]: best effect
IL-4 secretion (HBV-DNA transgenic mice): no obvious dose-effect dependence relation
secretion of IFN-γ (HBV-DNA transgenic mice): stronger
Specific activity (enzyme-labeled antibody; semifinished product): 13985.31 U/mg
potency of each vial (enzyme-labeled antibody; semifinished product): 4085.53 U
Specific activity (enzyme-labeled antibody; stock solution after reversed phase chromatography, batches 1-3 and x ± Sx, listed as εPA44): 10265.08 U/mg and 11689.76 ± 1503.57 U/mg and 13261.42 U/mg and 11542.77 U/mg
